From patent US4442106A, “Quinoline derivatives, pharmaceutical compositions containing such compounds, and methods of treating cardiovascular conditions with them” (ACF Chemiefarma N.V., priority 1980, dated 1984)
Read-outs that look alike come from different tables or passages of the source.

Experiments:
[1] = tested on: spontaneously hypertensive rats; test: Effectiveness in spontaneously hypertensive rats: systolic blood pressure by tail cuff method; assay type: in vivo; settings: Rattus norvegicus, read-out: Change of systolic blood-pressures
Method: Experiment 1-Effectiveness of the compounds of Examples in spontaneously hypertensive rats
Systolic blood pressures were recorded by a modification of the tail cuff method described by I.M. Claxton et al., Eur. J.Pharmacology 37, 179 (1976). An oscilloscope or W+W BP recorder, model 8002, was used to display pulses.
Prior to all measurements rats were placed in a heated environment (33.5±0.5° C.) before transfer to a restraining cage. Each determination of blood pressure was the mean of at least 6 readings.
Spontaneously hypertensive rats (aged 12-18 weeks) with systolic blood pressures >170 mm Hg were considered hypertensive.
In the following table the results with certain compounds of the invention, which have been carried out with the above-described method, are mentioned. The numbers of the compounds correspond with those of the Examples.

LD50 in mice = settings: mouse, in vivo
[2] = tested on: right ventricle of the heart; test: Guinea Pigs Electrostimulation Test (arrhythmias by electrostimulation of the right ventricle of the heart); assay type: in vivo; settings: Cavia porcellus, 0.5 h, 30 minutes before stimulation, read-out: Percent increase in voltage required for arrhythmia; for change in vivo at 32 mg/kg: standard dose 32 mg/kg intraduodenal
Method: Experiment 2-Effectiveness of the compounds of Examples in the Guinea Pigs Electrostimulation Test
Arrhythmias are induced in guinea pigs by electrostimulation of the right ventricle of the heart. The animals are anaesthesized with urethane (1.2 g/kg i.p.) and artificially respirated before a needle electrode is inserted in the right ventricle of the heart. Substances are given intraduodinally 30 minutes before the stimulation at a standard dose of 32 mg/kg. In some cases a different dose was used as indicated.
The voltage needed for induction of extra systoles in control animals (n=6) is compared with that required for induction of arrhythmias in treated animals (n=6).
This method is based on the work of L. Szekeres and G. J. Papp, Naunyn-Schmiedebergs Arch. Exp. Path. Pharmak., 245, 70 (1963).
In the table the results of certain compounds of the invention are mentioned, which have been carried out according to the method described above.
The numbers of the compounds correspond with those of the Examples.

Structure (SMILES) | change in vivo at 10 mg/kg ([1]; 1 h) | change in vivo at 10 mg/kg ([1]; 2 h) | change in vivo at 10 mg/kg ([1]; 4 h) | change in vivo at 10 mg/kg ([1]; 6 h) | change in vivo at 32 mg/kg [2] | change in vivo at 10 mg/kg ([1]; 24 h) | also measured
CCCN1CC[C@@H](CCC(=O)c2cc(C)nc3ccccc23)[C@@H](CC)C1 [Compound 26, N-propyl-2'-methyl-hydrocinchonicine] | 0% | 3% | -5% | -7% | 24% | – | LD50 (LD50 in mice): 500 mg/kg
CCCc1cc(C(O)CC[C@@H]2CCN(CCC)C[C@@H]2CC)c2ccccc2n1 (some centres unmarked) [Compound 41, N-propyl-2'-propyl-hydrocinchonicinol-1] | -6% | -11% | -15% | -17% | – | 3% | change in vivo at 8 mg/kg ([2]; intraduodenal): 101%
CCCN1CC[C@@H](CCCc2cc(C)nc3ccccc23)[C@@H](CC)C1 [Compound 43, 2'-Methyl-N-propyl-desoxo-hydrocinchonicine.bioxalate] | – | – | – | – | 9% | – | change in vivo at 100 mg/kg ([1]; 1 h): -1%; change in vivo at 100 mg/kg ([1]; 2 h): -12%; change in vivo at 100 mg/kg ([1]; 4 h): -28%; change in vivo at 100 mg/kg ([1]; 24 h): -15%
CCCOc1cc(C(=O)CC[C@@H]2CCN(C)C[C@@H]2CC)c2ccccc2n1 [Compound 51, N-methyl-2'-propoxy-hydrocinchonicine.bioxalate] | – | – | – | – | -5% | – | change in vivo at 3 mg/kg ([1]; 1 h): -1%; change in vivo at 3 mg/kg ([1]; 2 h): 0%; change in vivo at 3 mg/kg ([1]; 4 h): -7%; change in vivo at 3 mg/kg ([1]; 6 h): -13%; change in vivo at 3 mg/kg ([1]; 24 h): -1%
CC[C@H]1CN(CCCC(=O)c2ccccc2)CC[C@H]1CC(O)Cc1cc(OC)nc2ccccc12 (some centres unmarked) [Compound 54, N-(3-benzoylpropyl)-2'-methoxy-hydrocinchonicinol-2] | -17% | -1% | -16% | -16% | 16% | 7% | –
CCCCCN1CC[C@@H](CC(O)Cc2cc(C(F)(F)F)nc3ccccc23)[C@@H](CC)C1 (some centres unmarked) [Compound 61] | -8% | -10% | -13% | -12% | – | -7% | change in vivo at 8 mg/kg ([2]; intraduodenal): 11%
CCCN1CC[C@@H](CC(=O)Cc2cc(OC)nc3ccccc23)[C@@H](CC)C1 [Compound 63, 1-(2-Methoxy-4-quinolyl)-3-[3(R)-ethyl-N-propyl-4(S)-piperidyl]-propanone-2.bioxalate] | -1% | 1% | -4% | -3% | – | -6% | change in vivo at 4 mg/kg ([2]; at 4 mg/kg, intraduodenal): 12%
